Laboratory results from paper PMC10373466 (ACS Omega, 2023).

Molecular target: hAChE (Homo sapiens, UniProt P22303)
Test: In vitro AChE inhibition assay
Format: biochemical
Settings: in vitro AChE inhibition IC50 ± SD, Ellman method, n = 3

Chain of hAChE (P22303 32-614): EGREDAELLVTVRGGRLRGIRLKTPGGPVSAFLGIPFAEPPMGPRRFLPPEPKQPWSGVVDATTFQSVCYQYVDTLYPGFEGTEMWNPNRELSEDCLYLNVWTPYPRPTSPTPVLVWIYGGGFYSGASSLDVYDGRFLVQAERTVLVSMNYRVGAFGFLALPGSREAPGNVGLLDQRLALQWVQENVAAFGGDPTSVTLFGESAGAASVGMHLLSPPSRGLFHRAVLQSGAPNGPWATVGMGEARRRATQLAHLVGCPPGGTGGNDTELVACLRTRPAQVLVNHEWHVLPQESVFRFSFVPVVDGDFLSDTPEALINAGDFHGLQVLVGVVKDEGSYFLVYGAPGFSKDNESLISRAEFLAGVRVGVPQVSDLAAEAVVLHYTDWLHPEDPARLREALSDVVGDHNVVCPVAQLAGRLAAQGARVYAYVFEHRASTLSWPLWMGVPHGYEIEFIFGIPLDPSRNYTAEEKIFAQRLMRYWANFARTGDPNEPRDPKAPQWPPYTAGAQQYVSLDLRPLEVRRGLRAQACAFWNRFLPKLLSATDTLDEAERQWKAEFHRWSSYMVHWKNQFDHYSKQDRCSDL

Row | SMILES | IC50
1 | Nc1c2c(nc3c1C(c1cccc(Br)c1)c1ccc(O)cc1O3)CCCC2 (centres unmarked) [3a, 11-Amino-12-(3-bromophenyl)-7,9,10,12-tetrahydro-8H-chromeno[2,3-b]quinolin-3-ol] | 3.48 ± 0.19 µM
2 | COc1cccc(C2c3ccc(O)cc3Oc3nc4c(c(N)c32)CCCC4)c1 (centres unmarked) [3b, 11-Amino-12-(3-methoxyphenyl)-7,9,10,12-tetrahydro-8H-chromeno[2,3-b]quinolin-3-ol] | 26.7 ± 1.42 µM
3 | Nc1c2c(nc3c1C(c1cccc([N+](=O)[O-])c1)c1ccc(O)cc1O3)CCCC2 (centres unmarked) [3c, 11-Amino-12-(3-nitrophenyl)-7,9,10,12-tetrahydro-8H-chromeno[2,3-b]quinolin-3-ol] | 15.1 ± 0.8 µM
4 | Nc1c2c(nc3c1C(c1ccc(Cl)c(Cl)c1)c1ccc(O)cc1O3)CCCC2 (centres unmarked) [3d, 11-Amino-12-(3,4-dichlorophenyl)-7,9,10,12-tetrahydro-8H-chromeno[2,3-b]quinolin-3-ol] | 5.31 ± 0.28 µM
5 | COc1ccccc1C1c2ccc(O)cc2Oc2nc3c(c(N)c21)CCCC3 (centres unmarked) [3e, 11-Amino-12-(2-methoxyphenyl)-7,9, 10, 12-tetrahydro-8H-chromeno[2,3-b]quinolin-3-ol] | 5.88 ± 0.31 µM
6 | Nc1c2c(nc3c1C(c1cccc(Br)c1)c1ccc(OS(=O)(=O)c4ccc(F)cc4)cc1O3)CCCC2 (centres unmarked) [4a, 11-Amino-12-(3-bromophenyl)-7,9,10,12-tetrahydro-8H-chromeno[2,3-b]quinolin-3-yl-4-fluorobenzenesulfonate] | 3.88 ± 0.21 µM
7 | COc1cccc(C2c3ccc(OS(=O)(=O)c4ccc(F)cc4)cc3Oc3nc4c(c(N)c32)CCCC4)c1 (centres unmarked) [4b, 11-Amino-12-(3-methoxyphenyl)-7,9,10,12-tetrahydro-8H-chromeno[2,3-b]quinolin-3-yl-4-fluorobenzenesulfonate] | 13.5 ± 0.72 µM
8 | Nc1c2c(nc3c1C(c1ccc(Cl)c(Cl)c1)c1ccc(OS(=O)(=O)c4ccc(F)cc4)cc1O3)CCCC2 (centres unmarked) [4d, 11-Amino-12-(3,4-dichlorophenyl)-7,9,10,12-tetrahydro-8H-chromeno[2,3-b]quinolin-3-yl-4-fluorobenzenesulfonate] | 6.09 ± 0.32 µM
9 | COc1ccccc1C1c2ccc(OS(=O)(=O)c3ccc(F)cc3)cc2Oc2nc3c(c(N)c21)CCCC3 (centres unmarked) [4e, 11-Amino-12-(2-methoxyphenyl)-7,9,10,12-tetrahydro-8H-chromeno[2,3-b]quinolin-3-yl-4-fluorobenzenesulfonate] | 22.4 ± 1.19 µM
10 | COc1ccc(S(=O)(=O)Oc2ccc3c(c2)Oc2nc4c(c(N)c2C3c2cccc(Br)c2)CCCC4)cc1 (centres unmarked) [4f, 11-Amino-12-(3-bromophenyl)-7,9,10,12-tetrahydro-8H-chromeno[2,3-b]quinolin-3-yl-4-methoxybenzenesulfonate] | 0.73 ± 0.03 µM
11 | COc1ccc(S(=O)(=O)Oc2ccc3c(c2)Oc2nc4c(c(N)c2C3c2cccc([N+](=O)[O-])c2)CCCC4)cc1 (centres unmarked) [4h, 11-Amino-12-(3-nitrophenyl)-7,9,10,12-tetrahydro-8H-chromeno[2,3-b]quinolin-3-yl-4-methoxybenzenesulfonate] | 1.53 ± 0.07 µM
12 | COc1ccc(S(=O)(=O)Oc2ccc3c(c2)Oc2nc4c(c(N)c2C3c2ccc(Cl)c(Cl)c2)CCCC4)cc1 (centres unmarked) [4i, 11-Amino-12-(3,4-dichlorophenyl)-7,9,10,12-tetrahydro-8H-chromeno[2,3-b]quinolin-3-yl-4-methoxybenzenesulfonate] | 2.2 ± 0.1 µM
13 | COc1ccc(S(=O)(=O)Oc2ccc3c(c2)Oc2nc4c(c(N)c2C3c2ccccc2OC)CCCC4)cc1 (centres unmarked) [4j, 11-Amino-12-(2-methoxyphenyl)-7,9,10,12-tetrahydro-8H-chromeno[2,3-b]quinolin-3-yl-4-methoxybenzenesulfonate] | 5.16 ± 0.22 µM
14 | Cc1ccc(S(=O)(=O)Oc2ccc3c(c2)Oc2nc4c(c(N)c2C3c2cccc(Br)c2)CCCC4)cc1 (centres unmarked) [4k, 11-Amino-12-(3-bromophenyl)-7,9,10,12-tetrahydro-8H-chromeno[2,3-b]quinolin-3-yl-4-methylbenzenesulfonate] | 9.35 ± 0.4 µM
